Patent US4798828A, “Heterocyclic-methylene-penems” (Beecham Group p.l.c., priority 1984, dated 1989)
Converted amounts (≈) assume the structure as drawn.

Columns and labels:
Experiment in all cases: Antibacterial activity of compounds alone (MIC)
Format in all cases: cell-based
Settings in all cases: compound alone, amoxycillin: typical MIC's from a number of tests, read-out: MIC (minimum inhibitory concentration)
[1] = system: C freundii Mantio
Source text: (§1) The following Table 1 summaries the antibacterial activity of selected compounds according to the invention (which are identified by compound numbers as given in the examples) against selected micro-organisms and, for comparison purposes, also gives the same data for amoxycillin. The data is given in the form of MIC values (minimum inhibitory concentration)in μg/ml.

[2] = system: E aerogenes N1
Source text: as §1

[3] = system: E coli JT410
Source text: as §1

[4] = system: P mirabilis C889
Source text: as §1

Row | Compound | MIC [1] [µg/mL] | MIC [2] [µg/mL] | MIC [3] [µg/mL] | MIC [4] [µg/mL]
1 | Cn1cc(/C=C2/C(=O)N3C(C(=O)O)=CSC23)nn1 (racemic) [88(a), (5RS) Sodium (Z)-6-(1-methyl-1,2,3-triazol-4-yl-methylene)penem-3-carboxylate] | 128 | 128 | 64 | 128
2 | O=C(O)C1=CSC2/C(=C\c3ccns3)C(=O)N12 (racemic) [Compound 11, (5RS) Sodium (Z)-6-(5-Isothiazolylmethylene)penem-3-carboxylate] | > 100 | > 100 | > 100 | > 100
3 | O=C(O)C1=CSC2/C(=C\c3ccon3)C(=O)N12 (racemic) [Compound 43, (5RS) Sodium (Z)-6-(Isoxazol-3-ylmethylene)penem-3-carboxylate] | 256 | > 512 | > 512 | 256
4 | Cc1nc(/C=C2/C(=O)N3C(C(=O)O)=CSC23)co1 (racemic) [Compound 78, (5RS) Sodium (Z)-6-[(2-methyloxazol-4-yl)methylene]penem-3-carboxylate] | > 512 | > 512 | > 512 | 256
5 | Cn1ccc(/C=C2/C(=O)N3C(C(=O)O)=CSC23)n1 (racemic) [Compound 169, (5RS) Sodium (Z)-6-(1-methylpyrazol-3-ylmethylene)penem-3-carboxylate] | 256 | 512 | 512 | 256
6 | CC1(C)S[C@@H]2[C@H](NC(=O)[C@H](N)c3ccc(O)cc3)C(=O)N2[C@H]1C(=O)O [Amoxycillin, reference compound] | > 512 | 512 (≈ 1400 µM) | 256 (≈ 701 µM) | > 512
7 | Cn1cc(/C=C2/C(=O)N3C(C(=O)O)=CS[C@H]23)nn1 [Compound 158, (5R) Sodium (Z)-6-(1-methyl-1,2,3-triazol-4-ylmethylene) penem-3-carboxylate] | 64 | 256 | 32 | 64
